From ChEMBL document CHEMBL2028040, “Malaria Box”

Assays:
Plasmodium falciparum [1] = assay: MMV: Inhibition of Plasmodium falciparum 3D7 at 5uM compound concentration.; type: functional
Plasmodium falciparum [2] = assay: MMV: Inhibition of Plasmodium falciparum 3D7 (EC50).; type: functional, organism-based
Trypanosoma cruzi = assay: MMV: Inhibition of Trypanosoma cruzi (Tulahuen C4 LacZ) (Chagas in vitro).; type: functional, organism-based
[3] = system: Trypanosoma brucei brucei; assay: MMV: Inhibition of Trypanosoma brucei brucei (Squib 427) (HAT in vitro).; type: functional, organism-based
[4] = system: Trypanosoma brucei rhodesiense; assay: MMV: Inhibition of Trypanosoma brucei rhodesiense (STIB 900) (HAT in vitro).; type: functional, organism-based
Leishmania infantum = assay: MMV: Inhibition of Leishmania infantum (MHOM/MA/BE/67) in vitro.; type: functional, organism-based
[5] = MMV: Cytotoxicity against human fibroblasts (MRC-5) cells.; conditions: MRC-5 cells (human fibroblasts)
Plasmodium falciparum [6] = assay: MMV: Inhibition of Plasmodium falciparum K1 (EC50).; type: functional, organism-based

SMILES	inhibition at 5 µM (Plasmodium falciparum [1]) [%]	EC50 (Plasmodium falciparum [2]) [µM]	IC50 (Trypanosoma cruzi) [µM]	IC50 [3] [µM]	IC50 [4] [µM]	IC50 (Leishmania infantum) [µM]	IC50 [5] [µM]	EC50 (Plasmodium falciparum [6]) [µM]
COc1ccc(Nc2nc(N/N=C/c3ccc(O)cc3)nc(Nc3ccc([N+](=O)[O-])cc3)n2)cc1	98	0.532	18.6	14.7	9.88	21.5	> 32	
CN(C)CCCNc1c2ccccc2nc2ccccc12	95	0.235	1	< 0.125	< 0.125	1.01	2.86	1.56
Cc1ccc(Nc2nc(-c3ccccn3)cs2)cc1	79	0.35	0.281	13.4	14.8	5.38		0.0822
Cc1nc2ccccc2c(O)c1CC=C(Cl)Cl	89	0.836	1.88	> 32	> 32	> 32	> 32	
CCC(C)NCC(O)(c1ccc(Cl)cc1)c1ccc(Cl)cc1 (stereo unspecified)	98		15	4.1	4.03	16	> 32	0.398
COc1ccc(CN2CCCC(C(=O)c3ccc(C(F)(F)F)cc3)C2)c(O)c1 (stereo unspecified)	97		> 32	> 32	> 32	> 32	> 32	0.728
COc1ccc2nc(N)nc(C)c2c1	63		> 32	18.4	16.3	> 32	> 32	0.3
O=C(NC1CCCCC1)C(c1cccs1)N(CCc1ccccc1)C(=O)c1ccco1 (stereo unspecified)	90	1.07	> 32	> 32	19.2	> 32	> 32	
O=[N+]([O-])c1ccc(C=NNc2nc3ccccc3[nH]2)cc1	99	0.142	> 32	> 32	> 32	16.2	> 32	
COc1ccc(CCN2CCC(CN(C)Cc3cnn(-c4ccccc4)c3)CC2)cc1	96	1.43	6.43	0.86	0.254	12	18.6	
CCN(CC)CCn1c(=N)n(CC(O)c2ccc(Cl)c(Cl)c2)c2ccccc21 (stereo unspecified)	97		3.82	0.908	1.02	1	16.1	0.575
O=C(CCc1ccco1)NC1CCN(CC2(c3ccc(Cl)cc3)CCC2)CC1	96	1.14	16.6	2.89	1.01	19	> 32	
COCCN(C(=O)Cc1cccs1)C(C(=O)NCc1ccc(OC)cc1)c1ccc(C(C)C)cc1 (stereo unspecified)	92	1.19	16.3	16.2	16.2	> 32	27	
FC(F)(F)c1cccc(CNC2CCN(CCc3ccccc3)CC2)c1	96	0.685	15.7	2.73	1.31	16.6	> 32	
C=CC12CCN(CC1)C(C(O)c1ccnc3ccc(OC)cc13)C2 (stereo unspecified)			> 32	> 32	16	> 32	> 32	0.0281
Cc1ccc2cc3c(N)c4c(C)ccc(C)c4nc3nc2c1	98	1.31	4.56	4.09	1.19	4.32	11.4	
CCOc1cc2c(cc1OCC)C(c1cc(Cl)ccc1O)NCC2 (stereo unspecified)	98	0.746	> 32	3	1.3	> 32	> 32	0.206
CCn1c(SCC(=O)Nc2cc(C(F)(F)F)ccc2Cl)nc2ccccc2c1=O	91	1	> 32	> 32	> 32	> 32	> 32	
CCOc1cc2c(cc1OCC)C(c1cc(C)c(O)c(C)c1)NCC2 (stereo unspecified)	97	0.683	> 32	12.9	4.06	17.3	> 32	0.168
CCc1ccc(CNCC(O)c2ccccc2)cc1 (stereo unspecified)	97		> 32	13.3	4.03	25.4	> 32	0.65

SMILES	inhibition at 5 µM (Plasmodium falciparum [1]) [%]	EC50 (Plasmodium falciparum [2]) [µM]	IC50 (Trypanosoma cruzi) [µM]	IC50 [3] [µM]	IC50 [4] [µM]	IC50 (Leishmania infantum) [µM]	IC50 [5] [µM]	EC50 (Plasmodium falciparum [6]) [µM]
CCOc1cc2c(cc1OCC)C(c1cc(Cl)c(O)c(OCC)c1)NCC2 (stereo unspecified)	96	1.33	> 32	11	4.61	17.3	> 32	0.651
CC(C)(C)CC(C)(C)NCC(O)COc1ccc2c(c1)CCC2 (stereo unspecified)	78		15.7	3.49	1.02	4.76	26.1	1.08
CCCCCCn1c(=N)n(CC(O)COc2cccc(C)c2)c2ccccc21 (stereo unspecified)	98	1.14	3.78	1.01	0.942	2.54	4	0.7
O=C(Nc1nc(-c2ccccn2)cs1)c1ccccc1Br	97	1.36	0.26	1.04	0.376	1.59		1.58
CC(O)(c1ccc(Cl)cc1)C(CN1CCCCC1)c1ccccc1 (stereo unspecified)	94		> 32	16.1	14.8	> 32	> 32	0.576
CCOC(=O)C1(Cc2ccccc2)CCN(Cc2cccc(OC)c2O)CC1	95		17.1	16.7	15.3	> 32	> 32	1
O=C(Cc1ccccc1)NC(c1ccc(Cl)cc1)c1c(O)ccc2ccccc12 (stereo unspecified)	97	1.14	3.65	4.06	3.7	4.76	8.22	
CCOc1ccc2c(c1)CN(Cc1ccc(Cl)cc1)CO2	97	0.439	> 32	7	11	> 32	> 32	0.184
CC(C)(C)c1ccc2c(c1)CN(Cc1ccc(Cl)cc1)CO2	98	0.362	17.7	10.1	5.04	> 32	> 32	0.107
COc1ccc(C(=O)NC(c2ccccc2Cl)c2cc(Cl)c3cccnc3c2O)cc1 (stereo unspecified)	96		> 32	> 32	> 32	> 32	> 32	0.703
Cc1cc(=O)oc2c1ccc1oc(C(=O)c3ccccc3)c(C)c12	94		> 32	> 32	20.8	> 32	6.35	0.683
Oc1ccc(Br)cc1CN1CCN(Cc2ccc(Cl)cc2)CC1	97		8.28	> 32	14.9	> 32	> 32	0.899
CCCc1c(C)nc2ccc(Br)cc2c1O	64	1.19	> 32	> 32	> 32	> 32	> 32	
CC1=C(CC(=O)c2cccc([N+](=O)[O-])c2)C(=O)c2ccccc2C1=O	95	0.381	13.4	14.5	16	> 32	> 32	
CCOc1c(Cl)cc(CNC(C)C(O)c2ccccc2)cc1OC (stereo unspecified)	98		> 32	9.51	4.09	16.6	> 32	0.706
CCCCCn1c(=N)n(CC(O)COc2cccc(C)c2)c2ccccc21 (stereo unspecified)	96		4.21	0.923	0.986	3.41	15.5	1.25
CN1c2ccccc2N(C)C1c1ccc2c(c1)OCO2	60	0.994	> 32	> 32	> 32	> 32	> 32	
O=C(NCC1Cc2cccc(-c3ccncc3)c2O1)c1csc2c1CCCC2 (stereo unspecified)	87	1.72	5.16	16.5	13.9	> 32	28.5	
C=C(C)CCC(C)N1CCC(N2CCC(C(=O)NCCc3ccccc3)CC2)CC1 (stereo unspecified)	96	1.75	18.2	17.7	7.79	> 32	19	
Cc1ccc(S(=O)(=O)c2c(COC(=O)c3cccc(C)c3)c(-c3ccccc3)nn2C)cc1	95		23.6	16.3	16.5	17.3	> 32	0.776
